How the values were obtained:
[1] = system: traumatic brain injury (TBI) rats; assay: Water maze test (acquisition and probe trial) 12 weeks after fluid-percussion brain injury; assay type: in vivo, Sprague Dawley rats
From the text: (§1) Sprague Dawley rats were subjected to moderate parasagittal fluid-percussion brain injury using methods described in Atkins et al, J Neurosci Res 90, 1861-71 (2012). Adult male Sprague Dawley rats (280-300 g; Charles Rivers Laboratories) were anesthetized with 3% isoflurane, 70% N2O, and 30% O2 and received a 4.8-mm craniotomy (3.8 mm posterior to bregma, 2.5 mm lateral to the midline) over the right parietal cortex. Twenty-four hours after the craniotomy, the animals were re-anesthetized (3% isoflurane, 70% N2O, and 30% O2); immobilized with pancuronium bromide (1.0 mg/kg); and mechanically ventilated with 1% isoflurane, 70% N2O, and 30% O2. When physiological measurements had stabilized, the animals received a fluid-percussion pulse (1.8-2.2 atmospheres, 14-16 msec) or sham injury with the fluid-percussion brain injury device. Blood gases, blood pH, and mean arterial blood pressure were monitored for 30 min prior to the fluid percussion brain injury or sham surgery and for up to 1 hr post-injury to maintain normal levels. Injured and sham injured rats were coded such that the investigator assessing the behavior of the animals would not know their injury status.
2-(4-(2-(5-chlorothiophen-2-yl)-5-ethyl-6-methylpyrimidin-4-yl)amino)phenyl)acetic acid (Compound 33) was dissolved in 100% dimethylsulfoxide (DMSO) at 1 mg/ml and then diluted 20 fold into 0.9% sodium chloride (saline) with 2 molar equivalents of sodium hydroxide (0.258 mM) to yield a final concentration of Compound 33 at 0.05 mg/ml in 5% DMSO saline. Rats treated with vehicle received 5% DMSO in saline. Four treatment groups were studied; TBI rats treated with vehicle, TBI rats treated with Compound 33, sham rats treated with vehicle, and sham rats treated with Compound 33. Compound 33 and vehicle were delivered by intraperitoneal injection. Compound 33 was administered at a dose of 0.3 mg/kg. […] At 12 weeks after surgery, the rats were administered either vehicle or Compound 33 only 30 minutes prior to training on the water maze test.
Twelve weeks after surgery, rats were tested for cognitive ability using the water maze test. Animals received vehicle or Compound 33 (0.3 mg/kg, i.p.) 30 min prior to water maze training. The circular pool (122 cm diameter, 60 cm deep) was filled with opaque water at 24° C. and surrounded by distinct, invariant extramaze cues. An escape platform, 9.3 cm in diameter, was submerged 1.5 cm below the water surface. Animals received four 60 s acquisition trials per day for 4 days with inter-trial intervals of 4 min. […] Path length to reach the platform, escape latency, and swim speed were analyzed with EthoVision software (Noldus Information Technology). […]

[2] = system: traumatic brain injury (TBI) rats; assay: Working memory version of the water maze task, week 14 post-surgery; assay type: in vivo, Sprague Dawley rats; settings: 0.3 mg/kg 30 min prior to testing
From the text: as §1, with “status. […]” for “status.”
To assess working memory in TBI animals, a working memory version of the water maze task was used on week 14 post-surgery. […] Escape latency differences between the first location trial and subsequent match trial were measured.

[3] = system: subjects suffering a brain injury; settings: administered 1 hour after the injury; cited from earlier work
brain injury = settings: within 30 minutes of a brain injury; cited from earlier work
normal uninjured brains = settings: cited from earlier work
[4] = 0.3 mg/kg i.p. 30 min prior to training, 4 training days, 12 weeks after surgery

Structure (SMILES): CCc1c(C)nc(-c2ccc(Cl)s2)nc1Nc1ccc(CC(=O)O)cc1 [Compound 33]
- escape latency to reach the hidden platform during acquisition [1, 4]: progressive decrease
- path length to reach the hidden platform during acquisition [1, 4]: progressive decrease
- indices of learning (escape latency and path length) on the 4th day of acquisition ([1]; 0.3 mg/kg i.p., 4th day of acquisition, versus sham animals): comparable to sham animals treated with vehicle or Compound 33
- time in the target quadrant, probe trial (retention) ([1]; 24 h after last acquisition trial, platform removed, no drug on probe day): spent less time in the target quadrant as compared to Compound 33-treated TBI animals
- working memory (escape latency difference between location and match trial) [2]: this deficit was rescued by Compound 33 treatment

Structure (SMILES): CC(=O)CCCCn1c(=O)c2c(ncn2C)n(C)c1=O [pentoxyfilline]
- TNF-α [3]: reduced TNF-α
- outcomes after brain injury [3]: improved outcomes

Structure (SMILES): COc1ccc(C2CNC(=O)C2)cc1OC1CCCC1 (stereo not drawn) [rolipram]
- effect on brain injury (brain injury): exacerbates the brain injury
- learning and memory (normal uninjured brains): improve learning and memory
